Measurements from patent US11046647B2, “Activators of the unfolded protein response” (The Board of Trustees of the University of Illinois, priority 2018, dated 2021).

How the values were obtained:
T47D cells = details: 100, 500 and 1,000 nM; 24 hours; n=1
Experimental: One such change is loss of plasma membrane polarity. This is monitored using Annexin V. Dying cells also take up the dye propidium iodide. Propidium iodide (PI) fluoresces when it is intercalated into DNA. These assays monitor cells at specific stages of cell death.
FLOW CYTOMETRY (FITC) ASSAYS: Cells were seeded in 12-well plates, 75,000 cells/well, and allowed to adhere overnight. The next day, the indicated concentrations of raptinal (positive control), (−)-105, (±)-105, and (+)-105 were added and allowed to incubate at 37° C. for 24 hours (Final Volume: 1 ml, 0.1% DMSO). After incubation, cells were harvested and resuspended in 350 μl of cold Annexin binding buffer (10 mM HEPES, 140 mM NaCl, 2.5 mM CaCl2, pH 7.4) premixed with Annexin V-FITC and PI dyes. Samples were analyzed on a BD Biosciences LSRII flow cytometer, and data analysis was performed using FSC Express Version 5-6. Cell death was assessed relative to a DMSO treated control.
T47D, human breast cancer cells were plated at 75,000 cells/well. The next day, DMSO vehicle, 10 μM raptinal (control for 100% cell death), or 0, 50, 100 500 and 1,000 nM of BHPI or (±)-105, or 1,000 nM ICI/fulvestrant or 1,000 nM OHT was added. After 24 hours viable cells were determined by FACS using annexin V-FITC and propidium iodide dyes. (n=3 independent experiments ±SEM).
75,000 ERα positive T47D, human breast cancer cells, were plated/well. The next day, DMSO vehicle, 10 μM raptinal (control for 100% cell death), or 100 500 and 1,000 nM of (+)-105, or (−)-105 was added. After 24 hours viable cells were determined by FACS using annexin V-FITC and propidium iodide dyes. (n=1).

[1] = test system: MCF-7Y537S (MCF-7 ERαY537S-luciferase) cells; assay: Long-term cell culture experiment, MCF-7 ERαY537S-luciferase; type: cell-based, human; details: conditions as FIG. 15 (1 μM)
MDA-MB-231 = type: cell-based
Experimental: (§1) FIG. 36. Discovery of SERK-F6 (also known as, C(−)-105, (−)-105, (R)-105, (−)-1, or (R)-1), a compound that kills ERα-positive cancer cells, a, Chemical structures of BHPI and racemic compound 1 (i.e. (±)-1), and their cytotoxic activity on T47D breast cancer cells after 24-hour incubations with concentrations as indicated in nM. Cells were stained with annexin V-FITC and PI dyes prior to analysis via flow cytometry. […] Cells were incubated with SERK-F6 or positive control, Raptinal, for 24 hours and then stained with annexin V-FITC and PI dyes and analyzed via flow cytometry. Error bars represent S.E.M of 3 independent replicates. c, IC50 values of SERK-F6 after 24-hour incubation against a panel of cancer cell lines grouped by their reported ERα status. Cell viability was measured by Alamar blue fluorescence and set relative to a vehicle control and a quantitative dead control treated with Raptinal. Error bars represent S.E.M of 3 independent experiments. d, Crystal violet staining of T47D cells after 24-hour incubations with compounds and concentrations as indicated. Image is representative of 2 independent experiments. e,f, Long-term cell culture experiment with T47D, TDG, and TYS cells. Cells were incubated for 2 weeks with compounds (1 μM), followed by compound washout, and cells were cultured for 2 months. Cell number was determined by MTS. […]

MCF-7 = type: cell-based
Experimental: as §1

MCF-7 cells = assay: Trypan Blue exclusion cell death assay, MCF-7; type: cell-based, human; details: 24 hours
Source text: TRYPAN BLUE: For decades, viable cells have been measured by their ability to exclude the dye Trypan Blue. […] Dead cells, which have lost membrane integrity, take up the dye and are blue. Thus, the percentage of dead cells is the percentage of cells that are Trypan Blue positive out of the total cell population. Quantitative assessment of Trypan Blue uptake uses a cell counter from Fisher. Since the assay is instrument based, there is no observer bias in determining the percentage of Trypan Blue positive cells.
TRYPAN BLUE ASSAYS: Assays are performed on cells in 6 well plates: 300,000 cells are plated in each well of a 6-well plate in 3 ml of medium. After 24 hours, the DMSO vehicle or the indicated compound is added (in 1000th of the vol.) The cells incubated for an additional 24 hours, and then harvested in 0.25 ml of trypsin, followed after harvest by 0.75 ml of medium. […]
The Trypan Blue cell death assay was used to evaluate the ability of the active enantiomer of 105 (−) [(−)-105] to kill ERα positive MCF-7 and TYS-Luc, human breast cancer cells. […] After 24 hours, the cells were harvested, and the % dead cells was determined by automated Trypan Blue exclusion using the Countess II automated hemocytometer. Percentage of viable cells was calculated by doing 100-(Cell Death %). […]

With `O=C1Nc2c(C(F)(F)F)cccc2C1(c1ccc(O)cc1)c1ccc(OC(F)(F)F)cc1` (single isomer, unassigned; (-)) [(−)-105, 3-(4-hydroxyphenyl)-3-(4-(trifluoromethoxy)phenyl)-7-(trifluoromethyl)indolin-2-one] as the compound, how does the “activity of enantiomers (cell death)” value (T47D cells) read?
Its value is “active”.

What about the “eradication of cells in long-term experiment” value [1] of the same compound?
The value was “eradicates”.

And the cytotoxicity (MDA-MB-231)?
The cytotoxicity was “minimal effects”.

And the cytotoxicity (MCF-7)?
The cytotoxicity was “cytotoxic”.

What about the “killing of MCF-7 cells, dose response” value (MCF-7 cells) of the same compound?
Its value is “superior to BHPI”.
